Here are results for 4 molecules from US11717471B2, “Hydrogel microcapsules” (ISP Investments LLC, priority 2010, dated 2023).

Structures are written as SMILES. In brackets after ≈: the same amount, converted by molar mass.

Data set [1] can be described thus: Solubility of amine monomers of Formula I in water. The class given is physicochemical. From the text: The insolubility point was reached when a distinct two separate layers was observed.
For data set [2] the following is noted: Material Safety Data Sheet from Arkema Inc for Norsocryl; cited from earlier work.
[3] abbreviates: 0.1 g amine monomer/100 g deionised water.
Where [4] appears, read: 0.2 g amine monomer/100 g deionised water.
Setting [5] is: 0.3 g amine monomer/100 g deionised water.
The mark [6] stands for this setting: 0.4 g amine monomer/100 g deionised water.
[7] abbreviates: 0.5 g amine monomer/100 g deionised water.
Setting [8] is: 1.0 g amine monomer/100 g deionised water.
The mark [9] stands for this setting: 1.5 g amine monomer/100 g deionised water.
The mark [10] stands for this setting: 2.0 g amine monomer/100 g deionised water.
[11] abbreviates: 2.5 g amine monomer/100 g deionised water.
[12] abbreviates: 5.0 g amine monomer/100 g deionised water.
The mark [13] stands for this setting: 7.5 g amine monomer/100 g deionised water.
Setting [14] is: 10.0 g amine monomer/100 g deionised water.
[15] abbreviates: 12.5 g amine monomer/100 g deionised water.
Setting [16] is: 15.0 g amine monomer/100 g deionised water.

For `C=C(C)C(=O)OCC[N+](C)(CC)CC.COS(=O)(=O)[O-]` [DEAEMA Quat DMS, Diethylaminoethyl methacrylate dimethyl sulphate quaternary ammonium form], the solubility in water entry in data set [1] (quaternized monomer) is reported as “completely water soluble”.

As to `C=C(C)C(=O)OCCN(CC)CC` [DEAEMA, diethylaminoethyl methacrylate], the solubility in water result is recorded as “soluble” in data set [1] (setting [3]); “insoluble” in data set [1] (setting [4]); “insoluble” in data set [1] (setting [5]); “insoluble” in data set [1] (setting [6]); “insoluble” in data set [1] (setting [7]); “insoluble” in data set [1] (setting [8]). The solubility in water result in data set [1] (setting [9]), in data set [1] (setting [10]), in data set [1] (setting [11]), in data set [1] (setting [12]), in data set [1] (setting [13]) and in data set [1] (setting [14]) was “insoluble” in each case. The solubility in water result in data set [1] (setting [15]) and in data set [1] (setting [16]) was “insoluble” in each case.

As for `C=C(C)C(=O)OCCN(C(C)C)C(C)C` [DPAEMA, Diisopropylaminoethyl methacrylate], the solubility in water entry in data set [1] (setting [3]) is “soluble”; in data set [1] (setting [4]), “insoluble”; in data set [1] (setting [5]) it was “insoluble”; in data set [1] (setting [6]), “insoluble”; in data set [1] (setting [7]), “insoluble”; in data set [1] (setting [8]), “insoluble”. Also, the solubility in water result in data set [1] (setting [9]), in data set [1] (setting [10]), in data set [1] (setting [11]), in data set [1] (setting [12]), in data set [1] (setting [13]) and in data set [1] (setting [14]) was “insoluble” in each case. Besides, the solubility in water entry in data set [1] (setting [15]) and in data set [1] (setting [16]) was “insoluble” throughout.

As to `C=C(C)C(=O)OCCNC(C)(C)C` [TBAEMA, tertiary-butylaminoethyl methacrylate], in data set [2], the “solubility in water, published literature value” is 18 mg/mL (≈ 97.2 mM). The solubility in water result in data set [1] (setting [3]), in data set [1] (setting [4]), in data set [1] (setting [5]), in data set [1] (setting [6]), in data set [1] (setting [7]) and in data set [1] (setting [8]) was “soluble” in each case. The solubility in water entry in data set [1] (setting [9]) is given as “soluble”; in data set [1] (setting [10]), “insoluble”; in data set [1] (setting [11]) it was “insoluble”; in data set [1] (setting [12]) it was “insoluble”; in data set [1] (setting [13]) it was “insoluble”; in data set [1] (setting [14]) it was “insoluble”. Further, the results for the solubility in water result in data set [1] (setting [15]), in data set [1] (setting [16]) and in data set [1] (estimated from Table 2) were “insoluble”, “insoluble” and “less than 2 g/100 g water”, respectively.
